# Source: ChEMBL document CHEMBL1131760, “Substrate-selective mechanisms in biocatalysis demonstrated with a versatile and efficient aldolase antibody” (Bioorg Med Chem Lett, 1999)
# What was measured:
# [1] = Michaelis constant (Km) was determined; assay type: ADME
# [2] = Catalytic constant from Lineweaver-Burke analysis for antibody catalyzed retrograde aldol reaction with the compound; assay type: ADME
Structure (SMILES),Km [1],k cat [2]
CC(=O)CC(O)/C=C/c1ccccc1 (configuration not stated),415 µM,0.00145 s⁻¹
CC(=O)CC(O)/C=C/c1ccc([N+](=O)[O-])cc1 (configuration not stated),140 µM,0.0013 s⁻¹
CC(=O)CC(O)/C=C/c1ccc(N(C)C)cc1 (configuration not stated),1250 µM,0.042 s⁻¹

# Continued, values first:
Km [1],k cat [2],Structure (SMILES)
324 µM,0.00282 s⁻¹,CC(=O)CC(O)/C=C/c1ccc(Cl)cc1 (configuration not stated)
522 µM,0.0067 s⁻¹,COc1ccc(/C=C/C(O)CC(C)=O)cc1 (configuration not stated)
239 µM,0.00227 s⁻¹,CC(=O)CC(O)/C=C/c1ccc(C(F)(F)F)cc1 (configuration not stated)
